Key:
UC9 cells = assay: In vitro binding of [^68Ga]AJ647 to UC9 cells; type: cell-based; settings: 1 × 10^6 cells, ~1 μCi, 30 min, 4°C, means ± SD, n = 4
Method: In vitro binding of [^68Ga]AJ647 to T24, SCaBER, RT112, UC9, UC14, and HT1376 cells was determined by incubating 1 × 10^6 cells with ~1 μCi of [^68Ga]AJ647 for 30 min at 4°C. After incubation, cells were washed three times with ice-cold PBS containing 0.1% Tween 20 and counted on an automated gamma counter. All cell radioactivity uptake studies were performed in quadruplicate for each cell line and repeated three times.

HT1376 tumor xenograft = assay: TE and EV therapy response study, HT1376 xenograft; type: in vivo, NSG mice; settings: for mice showing a drop in [^68Ga]AJ647 uptake: day 6
Method: Mice with tumor volumes of ~100 to 150 mm^3 were injected with ~200 μCi [7.4 megabecquerels (MBq)] of [^68Ga]AJ647 in […] of 5% ethanol in saline intravenously and anesthetized under 2.5% isoflurane. PET-computed tomography (CT) images were acquired at 60 min after radiotracer injection at 5 min per bed in an ARGUS small-animal PET/CT scanner (Sedecal, Madrid, Spain) as described previously (n = 3, unless otherwise noted). PET-MR images were acquired on a simultaneous 7T Bruker PET-MR scanner. Dynamic imaging was conducted to evaluate the PK of [^68Ga]AJ647. [^68Ga]AJ647 was injected (with the help of a catheter) after mice were anesthetized under 2.5% isoflurane on the equipment bed. All PET data were reconstructed using the two-dimensional (2D) ordered subset expectation maximization algorithm and corrected for radioactive decay and dead times. The SUV values were calculated by finding %IA on the basis of a calibration factor obtained from a known radioactive quantity and then normalizing by mice weight. Amide software was used to derive SUV values by drawing the region of interest to closely fit tumors. In particular, MR images were used to identify tumor boundaries manually; these boundaries were transferred to co-registered PET images to derive SUVs. This process was repeated for each mouse individually in a blinded fashion. For the change in accessible Nectin-4 following EV treatment, ΔSUV was calculated by subtracting baseline (pre-treatment) uptake from posttherapy uptake of [^68Ga]AJ647. TE was quantified by normalizing this change by initial SUV in the same subject controls. Image fusion, visualization, and 3D rendering were accomplished using Amira 2020.3.1 (FEI, Hillsboro, OR).
Male NSG (n = 35) mice were inoculated with 4 million HT1376 cells at day 0. On day 23 (average tumor volume, 170 ± 22 mm^3), mice were randomized to receive either saline or a single dose of EV (6 or 15 mg/kg) intravenously (n = 10 for each group). Mice (n = 10) from each dose group were imaged on days 22 (pre-EV) and 29 (6 days post-EV). Saline mice (n = 5) were imaged on day 25 to serve as temporal and treatment control. Mouse body weight and tumor measurements were recorded until saline group tumors reached 1500 mm^3 in average size. Responders and nonresponders were identified using mRECIST for mice published elsewhere ([34]). Briefly, the percentage change in volume relative to the baseline: % tumor volume change (ΔVolt) = 100% × [(Vt − Vinitial)/Vinitial]. BestResponse was the lowest ΔVolt for t ≥ 10 days. For each time t, the average ΔVolt from t = 0 to t was calculated, with the BestAvgResponse defined as the lowest average ΔVolt for t ≥ 10 days. mRECIST, adapted from RECIST21, assigned response labels when both the BestResponse and BestAvgResponse conditions are met at the same time. A modified complete response is defined when BestResponse is less than −95% and BestAvgResponse is less than −40%. A modified partial response is assigned when BestResponse is less than −50% and BestAvgResponse is less than −20%. Modified stable disease is defined when BestResponse is less than 35% and BestAvgResponse is less than 30%. Modified progressive disease is assigned when none of these criteria are satisfied.
We defined modified progressive disease as nonresponders (0 response) and stable disease or better as responders (1 response). […]

[1] = 1.25 mg/kg dose level; cited from earlier work
Source text: Focusing on EV, an FDA-approved ADC targeting Nectin-4 ([11]), we aimed to test whether PET-measured target engagement (TE) could better define the relationships among dose, exposure, and therapeutic response. […] Adjustments in the dosage were more ...

T24 cells = assay: [^68Ga]AJ647 binding after EV preincubation, T24 cells; type: cell-based; settings: T24 (Nectin-4-negative); EV 60 nM preincubated 30 min
Method: An FITC analog of EV was made using the manufacturer’s recommended protocol (Thermo Fisher Scientific, no. 46409). Briefly, 1 mg of EV was incubated with FITC-NHS ester at a 5:1 molar ratio overnight at 4°C at 0.1 M borate buffer (pH 8.0). Excess unbound FITC-NHS ester was washed off by performing buffer exchange with 1× PBS using three rounds of ultracentrifugation at 4000g for 10 min (3-kDa molecular weight cutoff filter, Amicon, no. UFC900308). The effect of nonradioactive AJ647 on EV binding to Nectin-4 was assessed by incubating HT1376 cells at varying concentrations (5.4 μM to 0.01 nM using a serial dilution) of AJ647 for 30 min at 4°C. Unbound AJ647 was washed off using 3 ml of cold PBS. Cells were incubated with EV-FITC for 30 min at 4°C. Excess EV-FITC was washed off using 3 ml of cold PBS. The mean fluorescence intensity was measured using a flow cytometer, and data are reported as the percentage of 0 nM AJ647. For the effect of EV on [^68Ga]AJ647 binding, EV was used at concentrations of 90 to 0.04 nM using serial dilutions for 30 min at 4°C. Unbound EV was washed off using cold PBS. Then, cells were incubated with 1 μCi of [^68Ga]AJ647 for an additional 30 min. Excess [^68Ga]AJ647 was washed off three times with cold PBS. Samples were read in an automated gamma counter, and data are reported as the percentage of 1-μCi standard counts.

Row | Compound | [^68Ga]AJ647 uptake (UC9 cells) | mice showing a drop in [^68Ga]AJ647 uptake (HT1376 tumor xenograft; EV 6 mg/kg) | mice showing a drop in [^68Ga]AJ647 uptake (HT1376 tumor xenograft; EV 15 mg/kg) | final tumor volume (HT1376 tumor xenograft; EV-treated mice with higher TE, in mm³ (unit assumed)) | final tumor volume (HT1376 tumor xenograft; EV-treated mice with less than 30% TE) | tumor growth (HT1376 tumor xenograft; single dose EV 6 or 15 mg/kg, n = 10 per group, more pronounced at 15 mg/kg) | patients needing dosage adjustments [1] | effect on [^68Ga]AJ647 binding (T24 cells)
1 | CSCC[C@@H]1NC(=O)[C@@H]2CSCCC(=O)N3CN(CN(C3)C(=O)CCSC[C@H](NC(=O)CCOCCOCCOCCOCCOCCOCCOCCOCCOCCOCCOCCOCCNC(=O)CN3CCN(CC(=O)O)CCN(CC(=O)O)CC3)C(=O)N3CCC[C@H]3C(=O)N[C@@H](Cc3cccc4ccccc34)C(=O)N[C@@H](CC(=O)O)C(=O)N2)C(=O)CCSC[C@@H](C(N)=O)NC(=O)[C@H](Cc2c[nH]c3ccccc23)NC(=O)[C@@H]2C[C@@H](O)CN2C(=O)[C@@H]2CCCN2C(=O)[C@H]([C@@H](C)O)NC(=O)[C@H](CO)NC(=O)[C@H](Cc2c[nH]c3ccccc23)NC(=O)[C@@H](CC(=O)O)NC(=O)[C@H](CCCCNC(=N)N)NC1=O [[^68Ga]AJ647, metal not drawn] | 2.2 ± 0.48 %IA | – | – | – | – | – | – | –
2 | enfortumab vedotin [EV] | – | 5 of 10 | 9 of 10 | 324.9 ± 194.6 | 759.4 ± 455 | Tumor growth inhibition was observed in both groups | more than 32% | but not in Nectin-4–negative T24 cells

Reference: article PMC12778052 (Science Advances, 2026)
